The subject of one data set is Candida albicans TA. In words: Protective effect against Candida albicans infection in mice (oral, ED50 from survival rate). In kind it is in vivo. Particulars: Crj: CDF1 mice inoculated i.v. with minimum lethal dose of Candida albicans TA, single oral dose immediately after infection as 30% HPCD solution, Reed and Muench method from survival rate 7 days after infection; for ED50: 168 h. On the procedure: Test Method: Five-week-old Crj: CDF1 mice were inoculated with the minimum lethal dose of Candida albicans TA intravenously. The test compounds were administered orally once immediately after infection as a 30% HPCD (hydroxypropyl-β-cyclodextrin) solution. The activity was expressed in terms of ED50 value calculated by the Reed and Muench method from the survival rate 7 days after infection.

From patent publication US6362206B1, “Azole compounds, their production and use” (Takeda Chemical Industries, Ltd., priority 1995, dated 2002) come the findings set out here.

By melting point is commonly meant the temperature, or range, at which the solid turns liquid. What is called ED50 is the midpoint of the dose-response relation.

“1-[(1R,2R)-2-(2,4-difluorophenyl)-2-hydroxy-1-methyl-3-(1H-1,2,4-triazol-17 yl)propyl]-3-[4-(1H-1,2,4-triazol-1-yl)phenyl]-2-imidazolidinone [Compound 10]”: the “ED50 (mg/kg) PO” value in the data set on Candida albicans TA was found to be 0.32 mg/kg.
On the same count and under the same terms, to “1-[(1R,2R)-2-(2,4-difluorophenyloy)-2-hydroxy-1-methyl-3-(1H-1,2,4-triazol-1-yl)propyl]-3-[4-(2H-1,2,3-triazol-2-yl)phenyl]-2-imidazolidinone [Compound 14]” belongs 0.32 mg/kg; to “1-[(1R,2R)-2-(2-fluorophenyl)-2:-hydroxy-1-methyl-3-(1H-1,2,4-triazol-1-yl)propyl]-3-[4-(1H-1-tetrazolyl)phenyl]-2(1H,3H)-imidazolone [Compound 44]”, 0.39 mg/kg; to “1-[((1R,2R)-2-(2,4-difluorophenyl)-2-hydroxy-1-methyl-3-(1H-1,2,4-triazol-1-yl)propyl]-3-[4-(1H-1,2,4-triazol-1-yl)phenyl]-2(1H,3H)-imidazolone [Compound 9]”, 0.16 mg/kg.
`C[C@@H](n1ncn(-c2ccc(-n3cncn3)cc2)c1=O)[C@](O)(Cn1cncn1)c1ccc(F)cc1F` [Compound 5, 2-[(1R,2R)-2-(2,4-difluorophenyl)-2-hydroxy-1-methyl-3-(1H-1,2,4-triazol-1-yl)propyl]-4-[4-(1H-1,2,4-triazol-1-yl)phenyl]-3(2H,4H)-1,2,4-triazolone] had a melting point of 182 to 184 °C. The molecule further returned an ED50 with Candida albicans TA of 0.22 mg/kg.
The molecule `C[C@@H](n1ncn(-c2ccc(-n3ccnn3)cc2)c1=O)[C@](O)(Cn1cncn1)c1ccc(F)cc1F` [Compound 6, 2-[(1R,2R)-2-(2,4-difluorophenyl)-2-hydroxy-1-methyl-3-(1H-1,2,4-triazol-1-yl)propyl]-4-[4-(1H-1,2,3-triazol-1-yl)phenyl]-3(2H,4H)-1,2,4-triazolone] registered a melting point of 219 to 220 °C. In the data set with Candida albicans TA, this molecule displayed an ED50 of 0.35 mg/kg.
The like results for `C[C@@H](n1ncn(-c2ccc(-n3nccn3)cc2)c1=O)[C@](O)(Cn1cncn1)c1ccc(F)cc1F` [Compound 7, 2-[(1R,2R)-2-(2,4-difluorophenyl)-2-hydroxy-1-methyl-3-(1H-1,2,4-triazol-1-yl)propyl]-4-(4-(2H-1,2,3-triazol-2-yl)phenyl]-3(2H,4H)-1,2,4-triazolone] were, in that order, 213 to 215 °C and 0.096 mg/kg.
The like results for `C[C@@H](n1ccn(-c2ccc(-n3ccnn3)cc2)c1=O)[C@](O)(Cn1cncn1)c1ccc(F)cc1F` [Compound 11, 1-[(1R,2R)-2-(2,4-difluorophenyl)-2-hydroxy-1-methyl-3-(1H-1,2,4-triazol-1-yl)propyl]-3-[4-(1H-1,2,3-triazol-1-yl)phenyl]-2(1H,3H)-imidazolone] were, in that order, 178 to 181 °C and 0.45 mg/kg.
In the data set with Candida albicans TA, `C[C@@H](N1CCN(c2ccc(-n3ccnn3)cc2)C1=O)[C@](O)(Cn1cncn1)c1ccc(F)cc1F` [Compound 12, 1-[(1R,2R)-2-(2,4-difluorophenyl)-2-hydroxy-1-methyl-3-(1H-1,2,4-triazol-1-yl)propyl]-3-[4-(1H-1,2,3-triazol-1-yl)phenyl]-2-imidazolidinone] returned an ED50 of 0.71 mg/kg.
On to `C[C@@H](n1ccn(-c2ccc(-n3nccn3)cc2)c1=O)[C@](O)(Cn1cncn1)c1ccc(F)cc1F` [Compound 13, 1-[(1R,2R)-2-(2,4-difluorophenyl)-2-hydroxy-1-methyl-3-(1H-1,2,4-triazol-1-yl)propyl]-3-[4-(2H-1,2,3-triazol-2-yl)phenyl]-2(1H,3H)-imidazolone], for which the melting point fell in the range of 182 to 185 °C. In addition, it took a dose of 0.18 mg/kg to reach the 50% effect level in the data set on Candida albicans TA (ED50).
Turning to `C[C@@H](n1ncn(-c2ccc(-n3cccn3)cc2)c1=O)[C@](O)(Cn1cncn1)c1ccc(F)cc1F` [Compound 19, 2-[(1R,2R)-2-(2,4-difluorophenyl)-2-hydroxy-1-methyl-3-(1H-1,2,4-triazol-1-yl)propyl]-4-[4-(1H-1-pyrazolyl)phenyl]-3(2H,4H)-1,2,4-triazolone], the ED50 in the data set on Candida albicans TA was found to be 0.39 mg/kg.
On the same count and under the same terms, to `C[C@@H](n1ncn(-c2ccc(-n3ncnn3)cc2)c1=O)[C@](O)(Cn1cncn1)c1ccc(F)cc1F` [Compound 25, 2-[(1R,2R)-2-(2,4-difluorophenyl)-2-hydroxy-1-methyl-3-(1H-1,2,4-triazol-1-yl)propyl]-4-[4-(2H-2-tetrazolyl)phenyl]-3(2H,4H)-1,2,4-triazolone] belongs 0.088 mg/kg; to `C[C@@H](n1ccn(-c2ccc(-n3ncnn3)cc2)c1=O)[C@](O)(Cn1cncn1)c1ccc(F)cc1F` [Compound 26, 1-[(1R,2R)-2-(2,4-difluorophenyl)-2-hydroxy-1-methyl-3-(1H-1,2,4-triazol-1-yl)propyl]-3-[4-(2H-2-tetrazolyl)phenyl]-2(1H,3H)-imidazolone], 0.16 mg/kg; to `C[C@@H](N1CCN(c2ccc(-n3ncnn3)cc2)C1=O)[C@](O)(Cn1cncn1)c1ccc(F)cc1F` [Compound 27, 1-[(1R,2R)-2-(2,4-difluorophenyl)-2-hydroxy-1-methyl-3-(1H-1,2,4-triazol-1-yl)propyl]-3-[4-(2H-2-tetrazolyl)phenyl]-2-imidazolidinone], 0.18 mg/kg.
`C[C@@H](N1CCN(c2ccc(-n3ccnn3)cc2)C1=O)[C@](O)(Cn1cncn1)c1ccccc1F` [Compound 34, [(1R,2R)-2-(2-fluorophenyl)-2-hydroxy-1-methyl-3-(1H-1,2,4-triazol-1-yl)propyl]-3-[4-(1H-1,2,3-triazol-1-yl)phenyl]-2-imidazolidinone] showed an ED50 in the data set on Candida albicans TA of 0.8 mg/kg.
Molecule `C[C@@H](N1CCN(c2ccc(-n3nccn3)cc2)C1=O)[C@](O)(Cn1cncn1)c1ccccc1F` [Compound 35, 1-[(1R,2R)-2-(2-fluorophenyl)-2-hydroxy-1-methyl-3-(1H-1,2,4-triazol-1-yl)propyl]-3-[4-(2H-1,2,3-triazol-2-yl)phenyl]-2-imidazolidinone] gave a melting point of 178 to 179 °C. Besides, in the data set with Candida albicans TA, the median effective dose (ED50) turned out to be 0.71 mg/kg.
On to `C[C@@H](n1ccn(-c2ccc(-n3cncn3)cc2)c1=O)[C@](O)(Cn1cncn1)c1ccccc1F` [Compound 38, 1-[(1R,2R)-2-(2-fluorophenyl)-2-hydroxy-1-methyl-3-(1H-1,2,4-triazol-1-yl)propyl]-3-[4-[1H-1,2,4-triazol-1-yl)phenyl]-2(1H,3H)-imidazolone], for which the ED50 in the data set on Candida albicans TA is 0.5 mg/kg.
Still for that read-out and setting: to `C[C@@H](N1CCN(c2ccc(-n3cncn3)cc2)C1=O)[C@](O)(Cn1cncn1)c1ccccc1F` [Compound 39, 1-[(1R,2R)-2-(2-fluorophenyl)-2-hydroxy-1-methyl-3-(1H-1,2,4-triazol-1-yl)propyl]-3-[4-(1H-1,2,4-triazol-1-yl)phenyl]-2-imidazolidinone] belongs 0.5 mg/kg; to `C[C@@H](n1ccn(-c2ccc(-n3ncnn3)cc2)c1=O)[C@](O)(Cn1cncn1)c1ccccc1F` [Compound 40, 1-[(1R,2R)-2-(2-fluorophenyl)-2-hydroxy-1-methyl-3-(1H-1,2,4-triazol-1-yl)propyl]-3-[4-(2H-2-tetrazolyl)phenyl]-2(1H,3H)-imidazolone], 0.35 mg/kg; to `C[C@@H](N1CCN(c2ccc(-n3ncnn3)cc2)C1=O)[C@](O)(Cn1cncn1)c1ccccc1F` [Compound 41, 1-[(1R,2R)-2-(2-fluorophenyl)-2-hydroxy-1-methyl-3-(1H-1,2,4-triazol-1-yl)propyl]-3-[4-(2H-2-tetrazolyl)phenyl]-2-imidazolidinone], 0.8 mg/kg.
Still for that read-out and setting: then `C[C@@H](n1ccn(-c2ccc(-n3cnnn3)cc2)c1=O)[C@](O)(Cn1cncn1)c1ccc(F)cc1F` [Compound 42, 1-[(1R,2R)-2-(2,4-difluorophenyl)-2-hydroxy-1-methyl-3-(1H-1,2,4-triazol-1-yl)propyl]-3-[4-(1H-1-tetrazolyl)phenyl]-2(1H,3H)-imidazolone], with 0.22 mg/kg; and `C[C@@H](N1CCN(c2ccc(-n3cnnn3)cc2)C1=O)[C@](O)(Cn1cncn1)c1ccc(F)cc1F` [Compound 43, 1-[(1R,2R)-2-(2,4— difluorophenyl)-2-hydroxy-1-methyl-3-(1H-1,2,4-triazol-1-yl)propyl]-3-[4-(1H-1-tetrazolyl)phenyl]-2-imidazolidinone], with 0.89 mg/kg.
Still for that read-out and setting: then `C[C@@H](N1CCN(c2ccc(-n3cnnn3)cc2)C1=O)[C@](O)(Cn1cncn1)c1ccccc1F` [Compound 45, 1-[(1R,2R)-2-(2-fluorophenyl)-2-hydroxy-1-methyl-3-(1H-1,2,4-triazol-1-yl)propyl]-3-[4-(1H-1-tetrazolyl)phenyl]-2-imidazolidinone], with 0.45 mg/kg.
